Measurements: patent publication US11045489B2, “Prognostic methods and systems of treatment for acute lymphoblastic leukemia” (MOR RESEARCH APPLICATIONS LTD., priority 2014, dated 2021)

What was measured:
Nalm-6 cells [1] = experiment: NAD assay in Nalm-6 cells treated with FK866; assay type: cell-based; details: 1 nM, 1, 3 and 6 hours
Method: (§1) NAMPT is the rate-limiting enzyme in the NAD^+ biosynthetic pathway. Thus, NAD^+ levels in the stimulated cells were measured using a standard NAD^+ assay (Biovision NADH/NAD Quantification Kit).
(§2) Nalm-6 cells were treated for 1, 3, and 6 hours with 1 nM FK866 (Sigma) and NAD^+ formation was measured using NAD assay as described. […] To measure the effect of NAD^+ depletion following FK866 treatment on Nalm-6 cells, apoptosis and viability were measured. Nalm-6 cells were treated for 48 hours with 1 nM FK866 and apoptosis was measured using FACS.

Nalm-6 cells [2] = experiment: Apoptosis by FACS in Nalm-6 cells treated with FK866; assay type: cell-based; details: 1 nM, 48 hours
Method: as §2

Nalm-6 cells [3] = experiment: Sensitivity to FK866 (NAD+ levels) of NALM-6 cells transfected with miR-451 mimic or inhibitor; assay type: cell-based; details: 3 hours
Method: The sensitivity of NALM-6 cells to the NAMPT inhibitor FK866 was measured in cells following transfection with miR-451 mimic or miR-451 inhibitor (FIG. 8). The sensitivity was measured by levels of NAD^+. […] Thus, miR-451 expression can distinguish between patients that could benefit from treatment with NAMPT inhibitors, such as FK866.

cellular NAD^+ levels = experiment: NAD+ assay in TPA stimulated cells; assay type: cell-based
Method: as §1

NAMPT [4] = experiment: NAMPT expression by FACS after TPA treatment; assay type: cell-based; details: Peripheral blood cells, 50 ng/ml TPA, 24 hours
Method: Studies by several investigators have shown that 12-0-tetradecanoylphorbol-13-acetate (TPA) (Sigma) is an extraordinarily potent tumor promoter and stimulates protein kinase C (PKC). Since NAMPT is over-expressed in several tumors, it was believed that it might be possible to achieve NAMPT stimulation by TPA treatment. To test this hypothesis. Peripheral blood cells were treated with 50 ng/ml TPA for 24 hours and NAMPT expression was measured by FACS using a specific NAMPT antibody.

NAMPT 3′-UTR = experiment: Luciferase reporter assay with NAMPT 3′-UTR; assay type: cell-based; details: P<0.05
Method: To confirm that NAMPT is a direct target of miR-451, luciferase reporter vectors were generated that contained the NAMPT 3′-UTR (LightSwitch NAMPT 3′UTR Reporter GoClone). Luciferase reporter assays (LightSwitch Luciferase Assay; SwitchGear) were then performed in the presence and absence of miR-451mimic and inhibitor to determine whether NAMPT was a direct downstream target of miR-451. The relative luciferase activity of the reporter that contained NAMPT 3′-UTR was decreased in 80% when miR-451 mimics were transfected.

NAMPT [5] = experiment: NAMPT expression by FACS in transfected Nalm-6 cells; assay type: cell-based; details: P<0.05
Method: To determine the effects of miR-451 on NAMPT expression, Nalm-6 cells were transfected with miR-451 mimic (SEQ ID NO: 2) and miR-451 inhibitor (GeneCopoeia miArrest miR-451, an inhibitor expression clone) and NAMPT expression was measured by FACS analysis using a specific NAMPT antibody.

Nalm-6 cells [6] = experiment: Tumor growth of transfected Nalm-6 cells injected s.c. into NOD/SCID mice; assay type: in vivo
Method: To further study the putative tumor-suppressive function of hsa-miR-451 in vivo, 10^7 viable Nalm-6 untransfected cells, transfected in vitro with miR-451, or transfected with scrambled control nucleic acid, were injected s.c. into the right flanks of 6-week-old female NOD/SCID mice. […] On day 26, the median tumor volume in the scrambled control mice and the miR-451 mice were 204.69 mm^3 (SE=63.96) and 23.32 mm^3 (SE=13.12) respectively (P=0.019). At the end of the experiment mice were sacrificed and the tumors were weighted. The median tumor weight in the scrambled control mice and the miR-451 mice were 0.0966 gr (SE=0.040) and 0.0159 gr (SE=0.0009) respectively (P=0.046) (FIG. 4C).

Phosphorylated STAT5 = experiment: Phospho-STAT5 levels by FACS in transfected NALM-6 cells; assay type: cell-based; details: NALM-6 cell line
Method: Phosphorylated STAT5 (phospho-STAT5) levels were measured by FACS analysis following transfection of miR-1290 mimic (overexpression) into NALM-6 cell line. An increase of 50% in the levels of pSTAT5 protein is evident in the cells expressing high levels of miR-1290 (FIG. 11).

SOCS4 = SOCS4 protein levels by Western blotting in transfected Nalm6 cells; assay type: cell-based; details: Nalm6 cell line, over-expression of miR-1290, Western blotting
Method: Following transfection of miR-1290 mimic (SEQ ID NO: 4, over-expression), miR-1290 inhibitor (SEQ ID NO: 5, silencing), and miR-scramble (control), into the Nalm6 cell line, the protein levels of SOCS4 were measured using Western blotting (p=0.029; FIG. 9). The values shown in the figure are mean±S.D from 3 experiments.

With `O=C(/C=C/c1cccnc1)NCCCCC1CCN(C(=O)c2ccccc2)CC1` [FK866] the “NAD^+ detection following treatment” value (Nalm-6 cells [1]) was “gradual decrease”, the apoptosis (Nalm-6 cells [2]) was “induced apoptosis” and the “change in NAD+ production after FK866 treatment compared to Nalm-6/miR-NC” value (Nalm-6 cells [3]; Nalm-6/miR-451 cells (miR-451 mimic)) was “less change”. For the same compound, the “change in NAD+ production after FK866 treatment compared to Nalm-6/miR-NC” value (Nalm-6 cells [3]; Nalm-6/miR-inhibitor cells, p=0.003) was “more than 5 fold”.
`CCCCCCCCCCCCCC(=O)O[C@@H]1[C@@H](C)[C@@]2(O)[C@@H](C=C(CO)C[C@]3(O)C(=O)C(C)=C[C@@H]23)[C@H]2C(C)(C)[C@]12OC(C)=O` [TPA, 12-0-tetradecanoylphorbol-13-acetate] was tested, and the “cellular NAD^+ levels higher” value (cellular NAD^+ levels) was 2 fold and the “increase in NAMPT expression levels” value (NAMPT [4]) was “more than 4 folds”.
For “miR-451 mimic: miR-451 mimic (SEQ ID NO: 2) transfected into Nalm-6 cells by electroporation (AAACCGUUACCAUUACUGAGUU; listed as RNA, chemistry not given here; listed as Homo sapiens)”, the “relative luciferase activity of NAMPT 3′-UTR reporter decreased” value (NAMPT 3′-UTR) was 80%, the “NAMPT protein expression decreased by” value (NAMPT [5]) was 46% and the tumor growth (Nalm-6 cells [6]; NOD/SCID mice, Nalm-6/miR-451 cells s.c., versus scrambled miR control) was “significantly decreased tumor growth”. The median tumor volume (Nalm-6 cells [6]; day 26, NOD/SCID mice, Nalm-6 cells transfected in vitro, P=0.019 vs scrambled control) was 23.32 mm^3 and the median tumor weight (Nalm-6 cells [6]; end of the experiment, NOD/SCID mice, P=0.046 vs scrambled control) was 0.0159 gr.
In the case of “miR-1290 mimic: miR-1290 mimic (SEQ ID NO: 4, over-expression) transfected into Nalm6 cell line (UGGAUUUUUGGAUCACCUGAUCCAAAAAU; listed as RNA, chemistry not given here)”, the “increase in the levels of pSTAT5 protein” value (Phosphorylated STAT5) is reported as 50% and the SOCS4 protein levels (SOCS4) is reported as “down-regulation”.
